Measurements from patent US4266001A, “Light-sensitive mixture” (Hoechst Aktiengesellschaft, priority 1978, dated 1981).

Assay: Solubility of naphthoquinone diazides in ethylene glycol monomethyl ether
Type: physicochemical
Details: for Solubility (%): 26° C., stirred for 2 hours, 2 g in 50 g, crystalline samples, substantially free from amorphous fractions; for solubility (in words): Table 2
Method: The solubility of the new naphthoquinone diazides, as compared with the known bis-1,2-naphthoquinone-2-diazide-5-sulfonic acid ester of 2,2-bis-(4-hydroxyphenyl)-propane (comparison compound V), was determined as follows: 2 g of the naphthoquinone diazide were suspended in each case in 50 g of ethylene glycol monomethyl ether and stirred for 2 hours at 26° C. Then, the mixture was filtered by suction, the filter residue was washed successively with 10 cm^3 of methanol and 10 cm^3 of ether and dried in vacuo and its weight was determined. The solubilities in ethylene glycol monomethyl ether, listed in Table 2, were calculated from the difference to the quantity employed: […]
In all cases, it was confirmed by diffraction diagrams taken with an X-ray diffractometer that the samples tested were substantially free from amorphous fractions. In every case, the solubility of a solid compound which is wholly or partially present in the amorphous state is markedly higher than that of the corresponding crystalline compound. A comparison with these values is, however, unreliable because the solubilities of amorphous compounds cannot be determined with exact reproducibility due to the differing tendency of supersaturated solutions to crystallize.

Row | Solubility (%) | solubility (in words) | Compound
1 | 6.0% | very good solubility | CCOCCOC(=O)C(c1ccc(OS(=O)(=O)c2cccc3c2C=CC(=[N+]=[N-])C3=O)cc1)c1ccc(OS(=O)(=O)c2cccc3c2C=CC(=[N+]=[N-])C3=O)cc1 (centres unmarked) [Compound 22]
2 | 0.75% | – | CC(C)(c1ccc(OS(=O)(=O)c2cccc3c2C=CC(=[N+]=[N-])C3=O)cc1)c1ccc(OS(=O)(=O)c2cccc3c2C=CC(=[N+]=[N-])C3=O)cc1 [V, bis-1,2-naphthoquinone-2-diazide-5-sulfonic acid ester of 2,2-bis-(4-hydroxyphenyl)-propane, reference compound]
3 | > 7.4% | very good solubility | CCCCOC(=O)C(c1ccc(OS(=O)(=O)c2cccc3c2C=CC(=[N+]=[N-])C3=O)cc1)c1ccc(OS(=O)(=O)c2cccc3c2C=CC(=[N+]=[N-])C3=O)cc1 (centres unmarked) [Compound 20]

Continued, compound first:

Row | Compound | Solubility (%) | solubility (in words)
4 | COCCOC(=O)CCC(C)(c1ccc(OS(=O)(=O)c2cccc3c2C=CC(=[N+]=[N-])C3=O)cc1)c1ccc(OS(=O)(=O)c2cccc3c2C=CC(=[N+]=[N-])C3=O)cc1 (centres unmarked) [Compound 7] | 0.91% | –
5 | CCOC(=O)CCC(C)(c1ccc(OS(=O)(=O)c2cccc3c2C=CC(=[N+]=[N-])C3=O)cc1)c1ccc(OS(=O)(=O)c2cccc3c2C=CC(=[N+]=[N-])C3=O)cc1 (centres unmarked) [Compound 3] | 0.86% | –
6 | COC(=O)CCC(C)(c1ccc(OS(=O)(=O)c2cccc3c2C=CC(=[N+]=[N-])C3=O)cc1)c1ccc(OS(=O)(=O)c2cccc3c2C=CC(=[N+]=[N-])C3=O)cc1 (centres unmarked) [Compound 2] | 1.85% | very good solubility
7 | COC(C)CCOC(=O)CCC(C)(c1ccc(OS(=O)(=O)c2cccc3c2C=CC(=[N+]=[N-])C3=O)cc1)c1ccc(OS(=O)(=O)c2cccc3c2C=CC(=[N+]=[N-])C3=O)cc1 (centres unmarked) [Compound 9] | 1.54% | very good solubility
8 | CCCOC(=O)C(c1ccc(OS(=O)(=O)c2cccc3c2C=CC(=[N+]=[N-])C3=O)cc1)c1ccc(OS(=O)(=O)c2cccc3c2C=CC(=[N+]=[N-])C3=O)cc1 (centres unmarked) [Compound 19] | 0.95% | –
9 | CCOCCOC(=O)CCC(C)(c1ccc(OS(=O)(=O)c2cccc3c2C=CC(=[N+]=[N-])C3=O)cc1)c1ccc(OS(=O)(=O)c2cccc3c2C=CC(=[N+]=[N-])C3=O)cc1 (centres unmarked) [Compound 8] | 3.80% | very good solubility
